{"source": "patent US20070014757A1", "about": "“Compositions and complexes containing a macromolecular compound as potential anti-inflammatory agents” (COUNCIL OF SCIENTIFIC AND INDUSTRIAL RESEARCH, priority 2002, published 2007)", "key": {"[1]": {"conditions": "rat, in vivo", "method": "(§1) Hematological parameters were determined by blood cell counter (Medonic CA 620)."}, "[2]": {"assay": "Comparative behavior of dendrimer and indomethacin at different pH (solubility)", "type": "physicochemical", "protocol": "To study the comparative behavior of dendrimer and indometacin at different pH two possibilities were tried. […] The pH of the aqueous solutions of dendrimer was adjusted using 0.1 N HCl and 1M NaOH. […] To the aqueous solutions of various pH (pH-2, 4 7, 8 and 10), dendrimer was added at different percentage. (0.075, 0.15, 0.2). pH was measured in each case. […] The amines of dendrimer will show maximum ionization at acidic pH and minimum ionization at basic pH. […] (initial pH)."}, "[3]": {"assay": "Phase solubility study of indomethacin in aqueous dendrimer solutions", "type": "physicochemical", "conditions": "indomethacin with PAMAM (fourth generation), 25° C.", "protocol": "Solubility studies were carried out as described by Higuchi and Connors with minor modifications.\nSolubility phase diagram depicts the AN type of curve (FIG. 2), which represent a decreasing dependence on the ligand added at higher concentration. This type is comparatively least frequently encountered system, and its occurrence may be explained on the basis of self-association of the ligand at high concentration, which is in contrast to the curve reported by Emanuele et al, for dendrimer using ibuprofen. The negative slope in the curve may be due to the aggregation of dendrimer with the increasing concentration."}, "[4]": {"test_system": "cotton pellet granuloma in rats", "assay": "Cotton pellet test in rats (sub-acute model)", "type": "in vivo", "conditions": "granuloma dry weight vs control, dosed once a day, day 1 to 7; I 1.4 mg/kg, D 12 mg/kg, DI 1.4 mg/kg I + 12 mg/kg D", "protocol": "Cotton pellet test in rats: Four autoclaved pellets of cotton weighing 10 mg±0.5 mg were implanted on the previously shaved groin and axilla (two cotton pellet in each) region of rats aseptically. The test formulations (D,I and DI) were fed once a day from 1 to 7 of the experiment. On the day 8 th, the rats were etherized by an overdose of ether and the pellets surrounded by granuloma tissue wre dissected out carefully and dried in a hot oven at 60° C. till a constant weight was obtained. Ulcers were not found in any of the case. After dissection various organs were removed, washed, dried and weighed and histopathology was carried out. No abnormalities were found after conducting the histopathology of liver, lung, kidney and spleen.\nThe subcutaneous implantation of cotton pellets provides inflammatory exudates that are easily processed. Implantation of cotton pellet triggers the series of cascade inflammatory reaction, leads to the migration of mediators of the inflammation in the zone of implantation."}, "[5]": {"assay": "Hematological parameters in arthritic rats (blood cell counter)", "method": "as §1"}, "[6]": {"test_system": "Adjuvant-induced arthritis in rats", "assay": "Adjuvant-induced arthritis in rats (chronic model)", "type": "in vivo", "conditions": "foot swelling, daily dosing I 1 mg/kg, D 9 mg/kg, DI 1 mg/kg I + 9 mg/kg D", "description": "Rats were sacrificed. After dissection various organs were removed, washed, dried and weighed. Ulcers were not observed in any of the cases.\nThe body weight and feed intake of rats were monitored regularly. Weight gain has also been used as a parameter for assessing drug effectiveness."}}, "note": "Like-named read-outs stand apart in the source and are kept apart here.", "data": [{"compound": "NH2 terminated PAMAM dendrimer (EDA core) generation 4", "values": [{"measurement": "Haematocrit", "setting": "[1]", "result": 37.3, "unit": "%"}, {"measurement": "Hemoglobin concentration", "setting": "[1]", "result": 11.3, "unit": "gm/dl"}, {"measurement": "Large platelets", "setting": "[1]", "result": 7.75, "unit": "%"}, {"measurement": "Mean Platelet Cell Volume", "setting": "[1]", "result": 6.5, "unit": "um^3"}, {"measurement": "Mean cell hemoglobin", "setting": "[1]", "result": 18.9, "unit": "pg"}, {"measurement": "Mean cell hemoglobin concentration", "setting": "[1]", "result": 38, "unit": "g/dL"}, {"measurement": "Mean cell volume for red blood cell", "setting": "[1]", "result": 49.7, "unit": "um^3"}, {"measurement": "Packed platelet volume", "setting": "[1]", "result": 0.45, "unit": "%"}, {"measurement": "Platelet distribution width", "setting": "[1]", "result": 8.6, "unit": "um^3"}, {"measurement": "Platelets", "setting": "[1]", "result": "700 10^3\\mm^3"}, {"measurement": "Red blood cell", "setting": "[1]", "result": "6 10^6/mm^3"}, {"measurement": "Red cell distribution width", "setting": "[1]", "result": 14.9, "unit": "%"}, {"measurement": "Red cell distribution width absolute", "setting": "[1]", "result": 36.3, "unit": "um^3"}, {"measurement": "White blood cells", "setting": "[1]", "result": "8.78 10^3/mm^3"}]}, {"compound": "COc1ccc2c(c1)c(CC(=O)O)c(C)n2C(=O)c1ccc(Cl)cc1", "note": "[I, Indomethacin]", "values": [{"measurement": "solubility of indomethacin on addition of dendrimer (in words)", "setting": "[2]; case-A: filtered saturated solution of indomethacin", "result": "found to be decrease"}, {"measurement": "solubility of indomethacin on addition of dendrimer (in words)", "setting": "[2]; case-B: suspension with un-dissolved drug, dendrimer 0.075%, 0.15%, 0.2%", "result": "further increased"}, {"measurement": "type of phase solubility profile", "setting": "[3]", "result": "AN type of solubility profile"}, {"measurement": "Mean Percentage Inhibition ± SE", "setting": "[4]", "result": "22 ± 1.2", "unit": "%"}, {"measurement": "Haematocrit", "setting": "[5]", "result": 30.3, "unit": "%"}, {"measurement": "Hemoglobin concentration", "setting": "[5]", "result": 11.6, "unit": "gm/dl"}, {"measurement": "Large platelets", "setting": "[5]", "result": 8.05, "unit": "%"}, {"measurement": "Mean Platelet Cell Volume", "setting": "[5]", "result": 6.55, "unit": "um^3"}, {"measurement": "Mean cell hemoglobin", "setting": "[5]", "result": 19.9, "unit": "pg"}, {"measurement": "Mean cell hemoglobin concentration", "setting": "[5]", "result": 38.2, "unit": "g/dL"}, {"measurement": "Mean cell volume for red blood cell", "setting": "[5]", "result": 52, "unit": "um^3"}, {"measurement": "Packed platelet volume", "setting": "[5]", "result": 0.51, "unit": "%"}, {"measurement": "Platelet distribution width", "setting": "[5]", "result": 8.63, "unit": "um^3"}, {"measurement": "Platelets", "setting": "[5]", "result": "778 10^3\\mm^3"}, {"measurement": "Red blood cell", "setting": "[5]", "result": "5.87 10^6/mm^3"}, {"measurement": "Red cell distribution width", "setting": "[5]", "result": 18.9, "unit": "%"}, {"measurement": "Red cell distribution width absolute", "setting": "[5]", "result": 44.1, "unit": "um^3"}, {"measurement": "White blood cells", "setting": "[5]", "result": "8.85 10^3/mm^3"}, {"measurement": "Mean Percentage Inhibition ± SE", "setting": "[6]; +1 day", "result": "17 ± 0.9", "unit": "%"}, {"measurement": "Mean Percentage Inhibition ± SE", "setting": "[6]; +3 day", "result": "18 ± 0.7", "unit": "%"}, {"measurement": "Mean Percentage Inhibition ± SE", "setting": "[6]; +5 day", "result": "9 ± 0.6", "unit": "%"}, {"measurement": "Mean Percentage Inhibition ± SE", "setting": "[6]; +7 day", "result": "9 ± 0.8", "unit": "%"}, {"measurement": "Mean Percentage Inhibition ± SE", "setting": "[6]; +10 day", "result": "8 ± 0.6", "unit": "%"}, {"measurement": "Mean Percentage Inhibition ± SE", "setting": "[6]; +12 day", "result": "10 ± 0.9", "unit": "%"}, {"measurement": "Mean Percentage Inhibition ± SE", "setting": "[6]; +14 day", "result": "11 ± 0.9", "unit": "%"}]}]}
